Data on three compounds can be found in patent US20100204210A1, “METHOD FOR TREATING PULMONARY DISEASES USING RHO KINASE INHIBITOR COMPOUNDS” (priority 2008, published 2010).

The test system of test [1] is rat tracheal rings. In words: Relaxation of carbachol-precontracted rat tracheal rings with reduced responsiveness to beta adrenergic receptor agonist. Particulars: for response of carbachol-precontracted trachea to beta adrenergic receptor agonist: 300 nM carbachol, 1 μM isoproterenol, 1 μM formoterol or 30 μM albuterol, FIG. 1A-C; for relaxation by second addition of beta agonist after the response to 3 μM formoterol has faded: second dose 3 μM formoterol or 100 μM albuterol. On the procedure: Trachea were excised from male Sprague-Dawley rats, cleaned of connective tissue and cut into cylindrical segments of 2-3 mm length. Two stainless steel wires were guided through the lumen of the tracheal ring. One wire was fixed in the tissue bath and the other was connected to a force transducer via surgical silk. Preparations were mounted in 5 ml water-jacketed organ baths (Radnoti Glass Technology) filled with Krebs buffer (95 mM NaCl, 5 mM KCl, 2.6 mM CaCl2, 1.2 mM MgSO4, 24.9 mM NaHCO3, 1.2 mM KH2PO4, 10 mM glucose) maintained at 37° C. and gassed with 95% O2 and 5% CO2. Indomethacin (1 μM), a cyclooxygenase inhibitor, was added to the Krebs buffer and was present throughout the experiments. Contractile tensions were measured using an isometric force transducer (Grass Instruments) and signals were analyzed using specialized software (Chart v5.5, ADInstruments). The preparations were allowed to equilibrate at a resting tension of 0.3 to 0.5 gm prior to two challenges with 60 mM KCl to assess tissue viability. After washing, tissues were treated with 300 nM carbachol for 10 to 15 minutes to induce a contractile response. Tissues were then treated with isoproterenol, formoterol, or albuterol to induce a relaxant response. […] After 10 minutes of formoterol treatment, these tissues were treated with a second dose of formoterol or with albuterol. After an additional 10 minutes, tissues were treated with a Rho kinase inhibitor. Basal tension was subtracted from all values and data were reported as a percentage of the maximal carbachol-induced contraction. Four parameters were analyzed for quantitation of efficacies: i) the maximal relaxation induced by initial formoterol treatment, ii) the fade of the response to the initial formoterol treatment, iii) the maximal relaxation induced by the second addition of a beta adrenergic receptor agonist, and iv) the maximal relaxation induced by Rho kinase inhibitor.

Test [2] has as its system rat tracheal rings. In words: Relaxation of carbachol-precontracted rat tracheal rings pretreated with vehicle or pro-inflammatory cytokines IL-1β and TNF-α. Particulars: 300 nM carbachol, read-out: IC50 for relaxant response. On the procedure: Male Sprague-Dawley rats weighing 301-325 gm were sacrificed by asphyxiation in a CO2 chamber. Trachea were excised, cleaned of connective tissue and cut into cylindrical segments of 2-3 mm length. Tissues were treated for 18 hours at 37° C. in F12 media with penicillin-streptomycin and 0.1% BSA alone or with 10 ng/ml IL-1β and 100 ng/ml TNF-α. IL-1β and TNF-α are pro-inflammatory cytokines. Tissues were then washed free of cytokines with Krebs buffer. Contractile tensions were measured using an isometric force transducer (Grass Instruments) as described for Example 1 and signals were analyzed using specialized software (Chart v5.5, ADInstruments). Tissues were treated with 300 nM carbachol for 10 to 15 minutes to induce a contractile response. Beta adrenergic receptor agonist compounds, isoproterenol or albuterol, were added cumulatively to the bath every 2 to 3 minutes and reductions in tension were recorded. Alternatively, Rho kinase inhibitor compound was added cumulatively to the bath every 30 minutes and reductions in tension were recorded. Basal tension was subtracted from all values and data were reported as a percentage of the maximal carbachol-induced contraction. Data were fit to the Hill equation using GraphPad Prism v5 software.

Test [3] in a line: Pulmonary function test (FEV1 after methacholine provocation) in human patients treated with formoterol. In kind it is in vivo. As to conditions: formoterol group compared to the placebo group, after 2 weeks. The text has this: Patients with asthma or COPD are randomized to albuterol or Rho kinase inhibitor compound test groups. After 2-weeks of run-in period, subjects are given a methacholine provocation test (MPT) to induce bronchoconstriction followed by treatment with increasing doses of albuterol or with increasing doses of Rho kinase inhibitor compound to induce bronchorelaxation to establish the subject's baseline response to albuterol or Rho kinase inhibitor compound. Subjects from both test groups are then randomized to inhaled formoterol twice daily or placebo for 2 weeks. At the end of the trial period, the albuterol test group subjects are again administered a methacholine provocation test to induce bronchoconstriction followed by treatment with increasing doses of albuterol. Similarly, the Rho kinase inhibitor compound test group subjects are again administered a methacholine provocation test to induce bronchoconstriction followed by treatment with increasing doses of Rho kinase inhibitor compound to induce bronchorelaxation. The change in FEV1 after albuterol inhalation or administration of Rho kinase inhibitor compound is measured.

Setting [4] is: cytokine-pretreated tissue (10 ng/ml IL-1β and 100 ng/ml TNF-α, 18 hours).

pIC50: −log10 of the molar value. Like-named read-outs stand apart in the source and are kept apart here.

As for `COc1ccc(CC(C)NCC(O)c2ccc(O)c(NC=O)c2)cc1` (centres unmarked) [formoterol], in test [1], the “response of carbachol-precontracted trachea to beta adrenergic receptor agonist” value (from here on “response … to beta adrenergic receptor agonist”) was “initial rapid and partial relaxation of the tissue followed by a slower fade of the response to a more contractile state”; the “relaxation by second addition of beta agonist after the response to 3 μM formoterol has faded” value is “ineffective in relaxing the tracheal preparation”. The “maximal relaxation induced by initial formoterol treatment” value in test [1] (3 μM formoterol, FIGS. 4-7) is “approximately 30 % of the initial carbachol response”.

Broadly, the pIC50 is the IC50 on a negative log10 scale, so that one unit is a factor of ten. On to `CC(C)(C)NCC(O)c1ccc(O)c(CO)c1` (centres unmarked) [albuterol], for which the pIC50 in test [2] (setting [4]) is 6.39. In addition, the pIC50 in test [2] (vehicle-pretreated tissue) is 6.62. Besides, the “bronchodilator response as measured by FEV1” value in test [3] is reported as “decrease in the bronchodilator response”. Besides, in test [1], the “response … to beta adrenergic receptor agonist” value is “initial rapid and partial relaxation of the tissue followed by a slower fade of the response to a more contractile state”; the “relaxation by second addition of beta agonist after the response to 3 μM formoterol has faded” value is “ineffective in relaxing the tracheal preparation”.

For the compound `CC(C)NCC(O)c1ccc(O)c(O)c1` (centres unmarked) [isoproterenol], the pIC50 in test [2] (setting [4]) is 7.15; in test [2] (vehicle-pretreated tissue), 7.48. Also, the “response … to beta adrenergic receptor agonist” value in test [1] was “initial rapid and partial relaxation of the tissue followed by a slower fade of the response to a more contractile state”.
